Data reported in publication PMC3467072 (Nucleic Acids Research, 2012).

Tests used:
Type in all cases: binding, Mycobacterium tuberculosis
Rv3066 mutant N112A = system: Rv3066 mutant N112A
Rv3066 mutant W80A = system: Rv3066 mutant W80A
Rv3066 mutant W131A = system: Rv3066 mutant W131A

CC[n+]1c(-c2ccccc2)c2cc(N)ccc2c2ccc(N)cc21 [ethidium, ethidium bromide]
three to four times: Decrease of affinity for ethidium binding, N112A versus wild-type (Rv3066 mutant N112A) | Decrease of affinity for ethidium binding, W80A versus wild-type (Rv3066 mutant W80A) | Decrease of affinity for ethidium binding, W131A versus wild-type (Rv3066 mutant W131A)
